Assays:
Androgen receptor = molecular target: T1, Androgen receptor (Homo sapiens, UniProt P10275); experiment: Binding affinity to human AR
T1 sequence (P10275 whole entry): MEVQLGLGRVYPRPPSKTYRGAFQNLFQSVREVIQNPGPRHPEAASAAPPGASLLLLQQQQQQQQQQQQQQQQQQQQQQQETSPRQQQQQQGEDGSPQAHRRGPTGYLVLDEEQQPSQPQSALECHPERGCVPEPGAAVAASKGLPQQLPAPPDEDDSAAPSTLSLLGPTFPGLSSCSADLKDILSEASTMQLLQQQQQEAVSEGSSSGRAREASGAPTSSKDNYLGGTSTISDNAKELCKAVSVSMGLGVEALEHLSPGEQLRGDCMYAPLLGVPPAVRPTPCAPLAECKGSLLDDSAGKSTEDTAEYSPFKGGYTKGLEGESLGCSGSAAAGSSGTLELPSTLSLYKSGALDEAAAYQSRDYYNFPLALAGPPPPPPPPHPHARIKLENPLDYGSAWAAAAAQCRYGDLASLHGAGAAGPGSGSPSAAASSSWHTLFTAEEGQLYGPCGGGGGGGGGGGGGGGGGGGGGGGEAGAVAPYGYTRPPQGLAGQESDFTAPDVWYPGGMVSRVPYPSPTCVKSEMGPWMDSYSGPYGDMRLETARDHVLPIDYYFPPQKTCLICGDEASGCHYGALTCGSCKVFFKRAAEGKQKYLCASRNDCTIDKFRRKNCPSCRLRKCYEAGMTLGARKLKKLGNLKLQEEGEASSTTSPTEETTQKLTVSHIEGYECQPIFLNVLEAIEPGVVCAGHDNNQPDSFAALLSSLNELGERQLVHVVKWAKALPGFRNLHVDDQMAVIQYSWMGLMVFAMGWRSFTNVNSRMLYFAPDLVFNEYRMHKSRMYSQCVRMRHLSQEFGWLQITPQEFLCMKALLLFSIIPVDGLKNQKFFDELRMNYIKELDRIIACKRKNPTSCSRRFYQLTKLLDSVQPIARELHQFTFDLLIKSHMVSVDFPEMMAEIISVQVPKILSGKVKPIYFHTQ

Progesterone receptor = molecular target: T2, Progesterone receptor (Homo sapiens, UniProt P06401); experiment: Binding affinity to human PR
T2 sequence (P06401 whole entry): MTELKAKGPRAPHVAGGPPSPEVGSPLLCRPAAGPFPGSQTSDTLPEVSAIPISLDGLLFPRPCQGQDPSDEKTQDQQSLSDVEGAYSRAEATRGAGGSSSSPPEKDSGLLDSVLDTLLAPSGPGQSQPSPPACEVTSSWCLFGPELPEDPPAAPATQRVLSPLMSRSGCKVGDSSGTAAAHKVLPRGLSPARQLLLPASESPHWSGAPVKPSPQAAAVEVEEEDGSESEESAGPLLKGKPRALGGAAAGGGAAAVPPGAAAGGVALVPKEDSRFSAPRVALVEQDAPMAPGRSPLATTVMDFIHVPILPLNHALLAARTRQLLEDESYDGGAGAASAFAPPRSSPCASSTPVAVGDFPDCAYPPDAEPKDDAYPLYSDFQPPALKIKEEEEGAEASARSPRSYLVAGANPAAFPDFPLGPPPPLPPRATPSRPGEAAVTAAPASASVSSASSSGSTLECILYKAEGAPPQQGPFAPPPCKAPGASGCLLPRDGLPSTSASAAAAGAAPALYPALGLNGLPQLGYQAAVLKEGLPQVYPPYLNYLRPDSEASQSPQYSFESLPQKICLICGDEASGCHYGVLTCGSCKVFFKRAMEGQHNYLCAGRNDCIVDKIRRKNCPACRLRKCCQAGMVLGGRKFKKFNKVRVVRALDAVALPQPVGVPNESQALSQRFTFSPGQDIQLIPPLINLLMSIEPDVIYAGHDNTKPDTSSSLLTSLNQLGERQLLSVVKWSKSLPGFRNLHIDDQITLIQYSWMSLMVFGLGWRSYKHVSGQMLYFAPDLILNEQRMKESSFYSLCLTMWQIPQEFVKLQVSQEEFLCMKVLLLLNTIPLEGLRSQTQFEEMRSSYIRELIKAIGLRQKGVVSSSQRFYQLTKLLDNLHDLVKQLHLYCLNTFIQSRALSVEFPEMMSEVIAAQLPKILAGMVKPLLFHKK

Estrogen receptor = molecular target: T3, Estrogen receptor (Homo sapiens, UniProt P03372); experiment: Binding affinity to human ER-alpha
T3 sequence (P03372 whole entry): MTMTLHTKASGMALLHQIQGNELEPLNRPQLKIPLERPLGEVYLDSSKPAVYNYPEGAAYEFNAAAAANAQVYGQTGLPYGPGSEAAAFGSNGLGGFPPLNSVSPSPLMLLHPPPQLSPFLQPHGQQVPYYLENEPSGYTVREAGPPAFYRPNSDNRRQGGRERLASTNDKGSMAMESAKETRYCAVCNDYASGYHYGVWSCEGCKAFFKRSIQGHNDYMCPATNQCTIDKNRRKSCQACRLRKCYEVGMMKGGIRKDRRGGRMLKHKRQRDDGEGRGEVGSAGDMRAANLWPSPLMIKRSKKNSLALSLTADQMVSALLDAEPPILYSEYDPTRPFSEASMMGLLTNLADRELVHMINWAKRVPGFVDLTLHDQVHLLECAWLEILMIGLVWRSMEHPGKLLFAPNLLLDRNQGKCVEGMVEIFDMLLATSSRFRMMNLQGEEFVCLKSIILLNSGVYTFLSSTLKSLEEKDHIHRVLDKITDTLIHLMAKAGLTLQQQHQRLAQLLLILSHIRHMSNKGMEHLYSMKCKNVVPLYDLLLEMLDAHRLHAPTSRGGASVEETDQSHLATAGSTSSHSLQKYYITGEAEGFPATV

Glucocorticoid receptor [1] = molecular target: T4, Glucocorticoid receptor (Homo sapiens, UniProt P04150)
T4 sequence (P04150 whole entry): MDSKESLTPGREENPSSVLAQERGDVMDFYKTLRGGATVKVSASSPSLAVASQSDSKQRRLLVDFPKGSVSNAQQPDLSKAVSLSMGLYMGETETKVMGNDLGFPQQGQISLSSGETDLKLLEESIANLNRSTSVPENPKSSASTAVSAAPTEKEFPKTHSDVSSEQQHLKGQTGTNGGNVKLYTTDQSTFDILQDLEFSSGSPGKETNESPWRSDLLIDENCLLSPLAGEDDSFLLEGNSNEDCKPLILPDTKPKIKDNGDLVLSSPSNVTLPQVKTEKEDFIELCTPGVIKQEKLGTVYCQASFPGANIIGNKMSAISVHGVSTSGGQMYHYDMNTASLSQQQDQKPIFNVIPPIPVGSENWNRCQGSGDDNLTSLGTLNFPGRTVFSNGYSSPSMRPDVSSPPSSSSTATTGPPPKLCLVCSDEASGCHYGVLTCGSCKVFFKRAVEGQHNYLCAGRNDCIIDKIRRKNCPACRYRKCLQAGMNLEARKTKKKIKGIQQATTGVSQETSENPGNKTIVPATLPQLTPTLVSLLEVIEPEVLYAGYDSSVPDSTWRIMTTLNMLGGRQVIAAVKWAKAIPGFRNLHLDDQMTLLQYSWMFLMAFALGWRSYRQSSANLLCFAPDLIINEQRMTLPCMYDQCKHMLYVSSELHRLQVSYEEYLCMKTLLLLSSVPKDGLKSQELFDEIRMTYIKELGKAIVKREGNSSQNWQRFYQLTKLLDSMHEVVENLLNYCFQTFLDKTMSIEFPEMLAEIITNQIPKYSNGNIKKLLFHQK
Description: Binding affinity to human GR

Glucocorticoid receptor [2] = molecular target: T4, Glucocorticoid receptor; experiment: Transrepression activity at glucocorticoid receptor in human SW1353 cells assessed as repression of IL-1-induced MMP-13 production after 24 hrs by ELISA; format: cell-based
Glucocorticoid receptor [3] = molecular target: T4, Glucocorticoid receptor; remark: listed apart in the source
Description: Transrepression activity at glucocorticoid receptor in human whole blood assessed as repression of IL-1-induced TNF-alpha production after 4 hrs by ELISA

Estrogen receptor beta = Estrogen receptor beta (Homo sapiens, UniProt Q92731); experiment: Binding affinity to human ER-beta
Estrogen receptor beta, sequence (Q92731 whole entry): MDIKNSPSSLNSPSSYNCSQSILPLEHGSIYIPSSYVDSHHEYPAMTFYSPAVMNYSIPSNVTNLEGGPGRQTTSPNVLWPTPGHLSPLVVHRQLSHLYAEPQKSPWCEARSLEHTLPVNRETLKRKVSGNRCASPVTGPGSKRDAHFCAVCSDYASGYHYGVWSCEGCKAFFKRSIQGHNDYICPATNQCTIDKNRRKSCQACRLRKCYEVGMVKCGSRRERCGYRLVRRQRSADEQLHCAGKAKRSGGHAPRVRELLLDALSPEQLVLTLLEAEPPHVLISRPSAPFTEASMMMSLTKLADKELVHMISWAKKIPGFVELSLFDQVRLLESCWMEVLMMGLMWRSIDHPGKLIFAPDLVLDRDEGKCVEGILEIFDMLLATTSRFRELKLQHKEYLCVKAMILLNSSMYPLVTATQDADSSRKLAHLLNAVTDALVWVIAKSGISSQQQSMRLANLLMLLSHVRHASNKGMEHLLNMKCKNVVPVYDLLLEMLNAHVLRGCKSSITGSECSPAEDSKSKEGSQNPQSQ

SMILES	IC50 (Androgen receptor) [nM]	IC50 (Progesterone receptor) [nM]	IC50 (Estrogen receptor) [nM]	IC50 (Glucocorticoid receptor [1]) [nM]	IC50 (Glucocorticoid receptor [2]) [nM]	IC50 (Glucocorticoid receptor [3]) [nM]	IC50 (Estrogen receptor beta) [nM]
C=C[C@@]1(O)C[C@@]2(CC)c3ccc(O)cc3CC[C@@H]2C[C@@]1(O)c1ccccc1	–	–	–	5.2	> 5000	–	–
CC[C@@]12C[C@](C)(O)[C@](O)(c3ccccc3)C[C@H]1CCc1cc(O)ccc12	–	–	–	38	> 5000	–	–
CC[C@@]12C[C@@](C)(O)[C@@](C)(O)C[C@H]1CCc1cc(O)ccc12	–	–	–	211	–	–	–
CCC[C@]1(O)C[C@H]2CCc3cc(O)ccc3[C@]2(CC)C[C@@]1(C)O	–	–	–	20.1	> 5000	–	–
C=CC[C@]1(O)C[C@H]2CCc3cc(O)ccc3[C@]2(CC)C[C@@]1(C)O	–	–	–	35.4	> 5000	–	–
CC[C@@]12C[C@@](C)(O)[C@](O)(c3ccccc3)C[C@H]1C[C@@H](O)c1cc(O)ccc12	–	–	–	79	> 5000	–	–
CC[C@@]12CC[C@](O)(c3ccccc3)C[C@H]1CCc1cc(O)ccc12	–	–	–	–	> 5000	–	–
CC[C@@]12C[C@@H](O)[C@](O)(c3ccccc3)C[C@H]1CCc1cc(O)ccc12	–	–	–	–	> 5000	–	–
CC[C@@]12C[C@@](C)(O)[C@](O)(CC)C[C@H]1CCc1cc(O)ccc12 (mixture of isomers)	–	–	–	47	> 5000	–	–
C=C[C@]1(O)C[C@H]2CCc3cc(O)ccc3[C@]2(CC)C[C@@]1(C)O (mixture of isomers)	–	–	–	12.1	650	–	–

Now from value to molecule:

IC50 (Androgen receptor) [nM]	IC50 (Progesterone receptor) [nM]	IC50 (Estrogen receptor) [nM]	IC50 (Glucocorticoid receptor [1]) [nM]	IC50 (Glucocorticoid receptor [2]) [nM]	IC50 (Glucocorticoid receptor [3]) [nM]	IC50 (Estrogen receptor beta) [nM]	SMILES
300	321	> 3200	0.6	3.5	109	> 3200	CC[C@@]12C[C@@](C)(O)[C@](O)(c3ccccc3)C[C@H]1CCc1cc(O)ccc12
–	–	–	1.2	6	–	–	CC[C@@]12C[C@](O)(CC)[C@](O)(c3ccccc3)C[C@H]1CCc1cc(O)ccc12
–	–	–	1.3	12	–	–	CC[C@@]12C[C@@](C)(O)[C@](O)(c3ccc(C)cc3)C[C@H]1CCc1cc(O)ccc12
–	–	–	1.5	1.5	167	–	CC[C@@]12C[C@@](C)(O)[C@](O)(c3ccccn3)C[C@H]1CCc1cc(O)ccc12
–	–	–	22	80	–	–	CC[C@@]12C[C@@](C)(O)[C@](O)(c3cccnc3)C[C@H]1CCc1cc(O)ccc12
–	–	–	9.1	100	–	–	CC[C@@]12C[C@@](C)(O)[C@](O)(c3ccncc3)C[C@H]1CCc1cc(O)ccc12
–	–	–	0.79	1.5	83	–	CC[C@@]12C[C@@](C)(O)[C@](O)(c3nccs3)C[C@H]1CCc1cc(O)ccc12
–	–	–	1.5	1.9	–	–	CC#C[C@]1(O)C[C@H]2CCc3cc(O)ccc3[C@]2(CC)C[C@@]1(C)O
–	–	–	2.5	5	72.5	–	CC[C@@]12C[C@@](C)(O)[C@](O)(c3ccccc3)C[C@H]1CC(=O)c1cc(O)ccc12
–	–	–	0.3	4	400	–	CC[C@@]12C[C@@](C)(O)[C@](O)(c3ccccc3)C[C@H]1C=Cc1cc(O)ccc12
–	–	–	0.67	0.6	43	–	CC[C@@]12C[C@@](C)(O)[C@](O)(c3ccccc3)C[C@H]1C=C(C)c1cc(O)ccc12
–	–	–	1.7	28	–	–	CC[C@@]12C[C@@](C)(O)[C@](O)(c3ccccc3)C[C@H]1CC(=O)c1cc(OC(=O)c3ccccc3)ccc12
–	–	–	2.1	6	–	–	C/C=C/[C@]1(O)C[C@H]2CCc3cc(O)ccc3[C@]2(CC)C[C@@]1(C)O (mixture of isomers)
40	0.2	> 100000	0.4	7.5	1000	> 100000	Cc1noc(=O)c2ccc(NC(=O)C(O)(CC3(c4cc(F)ccc4Cl)CCC3)C(F)(F)F)cc12 (racemic)

From ChEMBL document CHEMBL3421549, “2-Aryl-3-methyloctahydrophenanthrene-2,3,7-triols as potent dissociated glucocorticoid receptor agonists” (J Med Chem, 2015)
